In patent US20010004528A1, “USE OF 13C NUCLEAR MAGNETIC RESONANCE TO DETECT BINDING TO TARGET MOLECULES” (priority 1995, published 2001):

Molecular target: T1, FKBP (Homo sapiens, UniProt P62942)
T1 construct: made in house; host or cells: E. coli
Test: Screening for ligands using 13C/1H NMR correlation spectra of 13C-enriched FKBP
Type: binding
Experimental: Uniformly ^13C-enriched FKBP was prepared in accordance with the procedures detailed above. […]
Two-dimensional ^13C/^1H NMR spectra were generated at 30° C. on a Bruker DRX500 NMR spectrometer equipped with a triple resonance probe and Bruker sample changer. The ^13C/^1H HSQC spectra were acquired as 64×1024 complex points using sweep widths of 3771 Hz (^13C, t1) and 8333 Hz (^1H, t2). A delay of 1 second between scans and 8 scans per free induction decay (fid) were employed in the data collection. All NMR spectra were processed and analyzed on Silicon Graphics computers.
A first two-dimensional ^13C/^1H NMR correlation spectrum was acquired for the ^13C-labeled FKBP target molecule as described above. The FKBP target was then exposed to a library mixture of test compounds. Stock solutions of the compounds were made at 100 mM and 1 M. In addition, a combination library was prepared which contained 8-10 compounds per sample at a concentration of 100 mM for each compound.
The pH of the 1 M stock solution was adjusted with acetic acid and ethanolamine so that no pH change was observed upon a 1/10dilution with a 100 mM phosphate buffered solution (pH 7.0). It is important to adjust the pH, because small changes in pH can alter the chemical shifts of the biomolecules and complicate the interpretation of the NMR data.
The compounds in the library were selected on the basis of size (molecular weight=100-300) and molecular diversity. The molecules in the collection had different shapes (for example, flat aromatic rings(s), puckered aliphatic rings(s), straight and branched chain aliphatics with single, double, or triple bonds) and diverse functional groups (for example, carboxylic acids, esters, ethers, amines, aldehydes, ketones, and various heterocyclic rings) to maximize the possibility of discovering compounds that interact with widely diverse binding sites. […]

T1 sequence (P62942 whole entry): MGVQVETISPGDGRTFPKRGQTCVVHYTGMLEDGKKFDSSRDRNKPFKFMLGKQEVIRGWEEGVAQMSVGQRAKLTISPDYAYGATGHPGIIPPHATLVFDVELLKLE

c1ccc(-c2ncc[nH]2)cc1 [2-phenylimidazole]
involvement of alanyl residues in binding (13C/1H correlation spectra) (FKBP selectively 13C labeled at alanyl residues, 2-phenylimidazole 0.25 mM): none of the alanyl residues are involved in the binding | binding site residues from chemical shift changes in 13C/1H correlation spectra (FKBP selectively 13C/15N/2H labeled at valinyl and leucyl residues, 2-phenylimidazole 0.25 mM): binding is occurring at or near the Leu^97 and Val^55 residues | binding to FKBP detected by chemical shift changes in 13C/1H correlation spectra (uniformly 13C-enriched FKBP 0.2 mM, compound about 0.25 mM, phosphate buffer pH 6.5, 30° C.): found to bind to FKBP
